Consider two molecules from patent US20150065717A1, “NIPECOTIC ACID DERIVATIVE AND USE THEREOF FOR MEDICAL PURPOSES” (Toray Industries, Inc., priority 2012, published 2015).

One assay deals with T1, recombinant human sEH (Homo sapiens, UniProt P34913).
T1 construct: purchased Cayman
T1 sequence (P34913 1-555): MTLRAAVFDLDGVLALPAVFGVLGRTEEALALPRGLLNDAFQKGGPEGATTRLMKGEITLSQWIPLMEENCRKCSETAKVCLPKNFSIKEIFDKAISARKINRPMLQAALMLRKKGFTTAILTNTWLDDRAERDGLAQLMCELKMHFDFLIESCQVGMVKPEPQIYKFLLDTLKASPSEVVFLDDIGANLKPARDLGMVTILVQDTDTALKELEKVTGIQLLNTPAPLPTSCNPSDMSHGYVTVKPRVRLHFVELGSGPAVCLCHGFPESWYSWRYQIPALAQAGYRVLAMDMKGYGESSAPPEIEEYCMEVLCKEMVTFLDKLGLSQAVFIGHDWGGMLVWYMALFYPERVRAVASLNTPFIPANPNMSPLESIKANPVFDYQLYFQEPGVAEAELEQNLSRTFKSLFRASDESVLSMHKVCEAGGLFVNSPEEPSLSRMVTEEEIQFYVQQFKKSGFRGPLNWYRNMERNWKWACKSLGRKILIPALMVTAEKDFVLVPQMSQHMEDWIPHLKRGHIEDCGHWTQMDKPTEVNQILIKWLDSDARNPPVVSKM
Description: In vitro evaluation test for sEH inhibitory activity. It counts as biochemical. The settings on record: recombinant human sEH 0.026 μg/mL, fluorescent substrate 6.25 μmol/L, room temperature. As to the method:
According to the method described in a known document (Analytical Biochemistry, 2005, vol. 343, p. 66-75), the sEH inhibitory activity of each nipecotic acid derivative (I) or a pharmaceutically acceptable salt thereof was evaluated using human sEH.
A recombinant human sEH (final concentration, 0.026 μg/mL; Cayman) was incubated with each test compound in 25 mM Bis-Tris-HCl buffer (pH 7.0) supplemented with 0.1 mg/mL BSA at room temperature for 30 minutes. Thereafter, cyano(6-methoxynaphthalen-2-yl)methyl 2-(3-phenyloxiran-2-yl)acetate (final concentration, 6.25 μmol/L; Cayman) was added thereto as a fluorescent substrate, and the resulting mixture was incubated at room temperature for 20 minutes. The reaction was then stopped by addition of ZnSO4 (final concentration, 0.2 mol/L), and the fluorescence intensity was measured (Fusion α (Packard); Excitation: 330 nm, Emission:485 nm).
The fluorescence intensity observed with addition of neither sEH nor a test compound was regarded as the sEH enzymatic reaction rate of 0%, and the fluorescence intensity observed with addition of sEH but without addition of a test compound was regarded as the sEH enzymatic reaction rate of 100%. From the obtained fluorescence intensity, the sEH enzymatic reaction rate of each test compound was calculated to determine IC50.

For assay [1], the system named is rat anti-GBM antiserum-administered nephritis model. Description: Pharmacological effect in rat anti-GBM antiserum-administered nephritis model. It counts as in vivo, rat (Wistar-Kyoto strain). As to the method: Example Compound 1 or 2 was administered to a rat anti-GBM antiserum-administered nephritis model (Proceedings of the National Academy of Sciences of the United States of America, 2005, vol. 102, p. 7736-7741; European journal of pharmacology, 2002, vol. 449, p. 167-176), and the therapeutic effect of the nipecotic acid derivative (I) or a pharmaceutically acceptable salt thereof on chronic renal disease with glomerulonephritis and renal failure was evaluated. Rats (Wistar-Kyoto strain, male, 8 weeks old; Charles River Laboratories Japan, Inc.) with nephritis induced by administration of a rabbit anti-rat GBM antiserum prepared by methods described in documents (Proceedings of the National Academy of Sciences of the United States of America, 2005, vol. 102, p. 7736-7741; European journal of pharmacology, 2002, vol. 449, p. 167-176) into the tail vein were provided as “group with induced nephritis”. On the other hand, rats to which the anti-GBM antiserum was not administered were provided as “normal group”. Two weeks after administration of anti-GBM antiserum, blood was collected from the tail vein or jugular vein of each rat, and the sCre level was measured. The measurement of the sCre level was carried out by the enzymatic method. Two weeks after administration of anti-GBM antiserum, part of the rats were euthanized under anesthesia, and their kidneys were removed and immersed in formalin for storage. The formalin-fixed kidneys were embedded in paraffin, and sections were prepared. Pathological specimens (HE- and PAS-stained) were prepared therefrom, and histopathological examination was carried out. To rats showing pathological conditions of glomerulonephritis and renal failure in the group with induced nephritis, a suspension of Example Compound 1 in 0.5% aqueous methyl cellulose solution […] of anti-GBM antiserum until the end of the experiment. This group was provided as “Example Compound 1 (3 mg/kg)-administered group”. In addition, for comparative control, 0.5% aqueous methyl cellulose solution supplemented with 0.5% Tween 80 was similarly administered to rats in the group with induced nephritis, to provide “nephritis control group”. Similarly, 0.5% aqueous methyl cellulose solution supplemented with 0.5% Tween 80 was administered to the normal group. […] The serum Cys-C level was also measured at Week 5 after the administration of anti-GBM antiserum. The measurement of the serum Cys-C level was carried out using the antigen-antibody reaction. Five weeks after the administration of anti-GBM antiserum, the rats were euthanized under anesthesia. Kidneys were removed therefrom and immersed in formalin for storage. The formalin-fixed kidneys were embedded in paraffin, and sections were prepared. Histopathological specimens (HE- and PAS-stained) were prepared therefrom, and histopathological examination was carried out. […] The abscissa in the figure represents the number of weeks after the administration of anti-GBM antiserum, and the ordinate represents the sCre level (mean±standard error, n=6). The symbol “*” in the figure represents statistically significant difference from the nephritis control group (t-test, p<0.05). The results of histopathological examination of kidneys at Week 5 after the administration of anti-GBM antiserum are shown in FIG. 2, wherein the damaged areas in 30 to 40 glomeruli per individual were scored on a 4-point scale based on the ratio (%) of the lesion area (lesion area score: 1+, less than 25%; 2+, not less than 25% and less than 50%; 3+, not less than 50% and less than 75%; 4+, not less than 75%). Each individual corresponds to each bar, wherein the distribution of lesion area scores is shown. The ordinate in the figure represents the ratio of the lesion area score in each individual. Rats (Wistar-Kyoto strain, male, 10 weeks old; Charles River Laboratories Japan, Inc.) with glomerulonephritis induced by administration of an anti-GBM antiserum into the tail vein were provided as “group with induced nephritis”. […]

Where [2] appears, read: 3 mg/kg, 5 weeks after anti-GBM antiserum, 5 animals.

As a reminder, the IC50 is the concentration needed to halve the response being measured.

On to `CCC(=O)NC1(C(=O)N2CCC[C@@H](C(=O)NCc3ccc(C#N)cc3OC(F)(F)F)C2)CCC1` [Example Compound 1, (R)—N-(4-cyano-2-(trifluoromethoxy)benzyl)-1-(1-propionamidocyclobutanecarbonyl)piperidine-3-carboxamide], for which the IC50 on recombinant human sEH worked out at 1.1 nM. In assay [1] (3 mg/kg orally once per day from Week 2, Week 3 after anti-GBM antiserum, t-test p<0.05, FIG. 1), the “sCre level vs nephritis control group” value is “statistically significantly lower”. Moreover, the “serum Cys-C level” value in assay [1] (3 mg/kg orally once per day from Week 2, Week 5 after anti-GBM antiserum, mean±standard error, n=6) came out at 0.63 ± 0.08 mg/L. Also, the “histopathological examination of kidneys, injurious changes vs nephritis control group” value in assay [1] (3 mg/kg, 5 weeks after anti-GBM antiserum) was “lower degrees and frequencies of these injurious changes”. For the same molecule, in assay [1] (setting [2]), the “Basophilic tubules, Mild” value was 2 number of individuals; the “Basophilic tubules, Moderate” value is on record as 3 number of individuals; the “Dilatation of renal tubules, Mild” value is recorded as 1 number of individuals; the “Dilatation of renal tubules, Moderate” value is 4 number of individuals. In assay [1] (setting [2]), the “Glomerular sclerosis, Mild” value is listed as 0 number of individuals; the “Glomerular sclerosis, Moderate” value is 5 number of individuals; the “Glomerular sclerosis, Severe” value is recorded as 0 number of individuals; the “Mild infiltration of mononuclear cells into the stroma” value is listed as 5 number of individuals. Besides, in assay [1] (setting [2]), the “Protein casts in outer medulla, Mild” value was 1 number of individuals; the “Protein casts in outer medulla, Moderate” value is 4 number of individuals; the “Protein casts in outer medulla, Severe” value was 0 number of individuals. Moreover, the “scoring of the damaged area in glomeruli (lesion area score)” value in assay [1] (3 mg/kg, Week 5 after anti-GBM antiserum, FIG. 2) is on record as “suppression of glomerular injury”.
On to `CC(C)(NS(C)(=O)=O)C(=O)N1CCC[C@@H](C(=O)NCc2ccc(C#N)cc2OC(F)(F)F)C1` [Example Compound 2, (R)—N-(4-cyano-2-(trifluoromethoxy)benzyl)-1-(2-methyl-2-(methylsulfonamido)propanoyl)piperidine-3-carboxamide], for which the IC50 on recombinant human sEH was 2.1 nM. For the same molecule, the “sCre level vs nephritis control group” value in assay [1] (10 mg/kg orally once per day from Week 2, Week 5 after anti-GBM antiserum, FIG. 3) was “remarkably lower”.
